Measured values as given in ChEMBL document CHEMBL4507276 (2021).

What was measured:
[1] = biological target: T1, NUAK family SNF1-like kinase 1 (Homo sapiens) (UniProt O60285); details: Compound concentration 1000.0 nM
T1 sequence (whole entry): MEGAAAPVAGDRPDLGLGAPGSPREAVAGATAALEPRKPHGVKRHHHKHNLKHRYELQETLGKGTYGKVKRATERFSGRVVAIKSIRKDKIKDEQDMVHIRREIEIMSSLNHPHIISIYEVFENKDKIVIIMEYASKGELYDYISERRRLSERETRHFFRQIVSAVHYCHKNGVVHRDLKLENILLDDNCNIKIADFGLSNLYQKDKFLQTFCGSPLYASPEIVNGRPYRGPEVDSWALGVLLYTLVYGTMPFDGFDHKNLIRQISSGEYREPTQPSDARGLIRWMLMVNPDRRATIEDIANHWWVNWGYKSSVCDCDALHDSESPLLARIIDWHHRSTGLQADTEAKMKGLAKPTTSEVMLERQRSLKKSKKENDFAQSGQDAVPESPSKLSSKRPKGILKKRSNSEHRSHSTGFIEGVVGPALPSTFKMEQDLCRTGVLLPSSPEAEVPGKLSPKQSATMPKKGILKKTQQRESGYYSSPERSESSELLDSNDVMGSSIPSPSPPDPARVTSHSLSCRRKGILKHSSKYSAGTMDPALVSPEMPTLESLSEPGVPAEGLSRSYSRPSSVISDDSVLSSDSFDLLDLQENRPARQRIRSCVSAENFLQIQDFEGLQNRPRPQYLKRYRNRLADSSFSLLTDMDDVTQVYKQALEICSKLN

[2] = biological target: T2, Serine/threonine-protein kinase DCLK2 (Homo sapiens) (UniProt Q8N568); details: Compound concentration 1000.0 nM
T2 sequence (whole entry): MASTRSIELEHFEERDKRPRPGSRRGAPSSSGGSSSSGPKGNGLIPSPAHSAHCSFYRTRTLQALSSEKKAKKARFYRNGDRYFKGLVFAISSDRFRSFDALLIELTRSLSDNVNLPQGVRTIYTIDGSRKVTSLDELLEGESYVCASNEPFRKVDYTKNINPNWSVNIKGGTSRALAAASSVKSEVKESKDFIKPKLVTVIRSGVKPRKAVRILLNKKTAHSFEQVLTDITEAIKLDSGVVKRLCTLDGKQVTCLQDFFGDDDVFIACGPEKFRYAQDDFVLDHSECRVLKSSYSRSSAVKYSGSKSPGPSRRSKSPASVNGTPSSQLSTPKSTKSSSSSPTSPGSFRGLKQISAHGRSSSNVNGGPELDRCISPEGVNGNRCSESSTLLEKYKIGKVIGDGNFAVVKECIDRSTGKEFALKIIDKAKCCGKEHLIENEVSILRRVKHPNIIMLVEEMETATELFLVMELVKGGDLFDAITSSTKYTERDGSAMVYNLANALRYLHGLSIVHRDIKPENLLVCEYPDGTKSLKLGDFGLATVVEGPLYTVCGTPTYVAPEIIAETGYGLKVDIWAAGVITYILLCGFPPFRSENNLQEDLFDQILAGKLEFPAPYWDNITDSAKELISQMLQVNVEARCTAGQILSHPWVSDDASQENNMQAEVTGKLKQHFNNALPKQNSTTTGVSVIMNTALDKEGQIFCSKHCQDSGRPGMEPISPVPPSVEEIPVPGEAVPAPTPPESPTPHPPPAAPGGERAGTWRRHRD

[3] = biological target: Tyrosine-protein kinase Fes/Fps (Homo sapiens) (UniProt P07332); details: Compound concentration 1000.0 nM
[4] = biological target: Homeodomain-interacting protein kinase 1 (Homo sapiens) (UniProt Q86Z02); details: Compound concentration 1000.0 nM
[5] = biological target: Mitogen-activated protein kinase kinase kinase kinase 3 (Homo sapiens) (UniProt Q8IVH8); details: Compound concentration 1000.0 nM
[6] = biological target: Serine/threonine-protein kinase Nek10 (Homo sapiens) (UniProt Q6ZWH5); details: Compound concentration 1000.0 nM
[7] = biological target: Rho-associated protein kinase 1 (Homo sapiens) (UniProt Q13464); details: Compound concentration 1000.0 nM
[8] = biological target: Ribosomal protein S6 kinase alpha-3 (Homo sapiens) (UniProt P51812); details: Compound concentration 1000.0 nM
[9] = biological target: SRSF protein kinase 1 (Homo sapiens) (UniProt Q96SB4); details: Compound concentration 1000.0 nM
[10] = biological target: Serine/threonine-protein kinase 32A (Homo sapiens) (UniProt Q8WU08); details: Compound concentration 1000.0 nM
[11] = biological target: Sodium-dependent dopamine transporter (Homo sapiens, UniProt Q01959); details: Compound concentration 10.0 uM
[12] = biological target: Histamine H1 receptor (Homo sapiens) (UniProt P35367); details: Compound concentration 10.0 uM
[13] = biological target: Beta-3 adrenergic receptor (Homo sapiens) (UniProt P13945); details: Compound concentration 10.0 uM
Chain of Beta-3 adrenergic receptor (Homo sapiens) (P13945 whole entry, looked up): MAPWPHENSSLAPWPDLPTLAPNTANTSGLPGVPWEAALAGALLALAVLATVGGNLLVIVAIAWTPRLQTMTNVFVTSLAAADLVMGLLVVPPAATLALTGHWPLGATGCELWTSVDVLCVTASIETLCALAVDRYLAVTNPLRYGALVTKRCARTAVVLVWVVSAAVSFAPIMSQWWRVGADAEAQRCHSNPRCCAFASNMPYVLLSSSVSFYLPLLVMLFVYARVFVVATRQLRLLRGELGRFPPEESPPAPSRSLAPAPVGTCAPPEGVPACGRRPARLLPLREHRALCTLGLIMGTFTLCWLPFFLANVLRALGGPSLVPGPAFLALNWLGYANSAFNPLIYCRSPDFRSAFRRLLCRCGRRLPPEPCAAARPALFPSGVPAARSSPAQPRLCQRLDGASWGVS

Chain of Mitogen-activated protein kinase kinase kinase kinase 3 (Homo sapiens) (Q8IVH8 whole entry): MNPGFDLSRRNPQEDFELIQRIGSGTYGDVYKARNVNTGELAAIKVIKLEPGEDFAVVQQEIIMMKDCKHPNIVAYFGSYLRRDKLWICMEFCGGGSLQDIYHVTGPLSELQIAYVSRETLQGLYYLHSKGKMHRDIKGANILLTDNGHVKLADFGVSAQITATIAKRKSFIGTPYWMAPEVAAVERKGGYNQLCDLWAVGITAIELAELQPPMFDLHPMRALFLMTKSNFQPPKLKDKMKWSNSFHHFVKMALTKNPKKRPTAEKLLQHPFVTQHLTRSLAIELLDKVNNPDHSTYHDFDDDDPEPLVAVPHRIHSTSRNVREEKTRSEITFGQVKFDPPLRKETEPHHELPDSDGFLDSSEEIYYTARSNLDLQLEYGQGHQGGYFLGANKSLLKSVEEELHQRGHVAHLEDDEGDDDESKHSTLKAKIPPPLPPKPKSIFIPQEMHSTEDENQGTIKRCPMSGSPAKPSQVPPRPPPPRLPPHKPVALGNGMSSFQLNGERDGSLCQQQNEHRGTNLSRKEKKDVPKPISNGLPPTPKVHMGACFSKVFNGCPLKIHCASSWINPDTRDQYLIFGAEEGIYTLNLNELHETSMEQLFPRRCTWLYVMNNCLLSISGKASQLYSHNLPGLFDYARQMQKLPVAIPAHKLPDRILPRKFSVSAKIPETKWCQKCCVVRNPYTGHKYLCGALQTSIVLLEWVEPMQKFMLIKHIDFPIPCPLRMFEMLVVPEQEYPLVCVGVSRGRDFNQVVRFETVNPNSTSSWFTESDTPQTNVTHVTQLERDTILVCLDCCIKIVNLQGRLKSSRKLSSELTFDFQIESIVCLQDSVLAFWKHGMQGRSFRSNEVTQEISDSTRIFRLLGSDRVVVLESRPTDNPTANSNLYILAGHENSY
Chain of SRSF protein kinase 1 (Homo sapiens) (Q96SB4 whole entry): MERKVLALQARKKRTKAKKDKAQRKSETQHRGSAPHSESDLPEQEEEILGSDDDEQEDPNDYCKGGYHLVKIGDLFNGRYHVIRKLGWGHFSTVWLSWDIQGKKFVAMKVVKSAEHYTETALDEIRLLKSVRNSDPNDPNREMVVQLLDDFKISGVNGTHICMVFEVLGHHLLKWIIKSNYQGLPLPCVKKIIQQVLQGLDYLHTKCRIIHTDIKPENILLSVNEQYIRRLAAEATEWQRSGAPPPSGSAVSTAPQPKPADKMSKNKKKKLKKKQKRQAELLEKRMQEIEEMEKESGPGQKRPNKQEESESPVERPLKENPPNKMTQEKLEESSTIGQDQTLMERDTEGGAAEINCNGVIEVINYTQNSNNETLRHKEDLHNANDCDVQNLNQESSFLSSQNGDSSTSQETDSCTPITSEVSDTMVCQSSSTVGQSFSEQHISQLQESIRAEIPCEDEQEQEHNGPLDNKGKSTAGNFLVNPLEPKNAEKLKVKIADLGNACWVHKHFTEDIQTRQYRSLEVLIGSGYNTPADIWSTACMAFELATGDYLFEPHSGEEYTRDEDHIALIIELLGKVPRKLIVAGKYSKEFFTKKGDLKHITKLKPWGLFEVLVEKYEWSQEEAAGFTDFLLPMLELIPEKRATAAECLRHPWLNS
Chain of Homeodomain-interacting protein kinase 1 (Homo sapiens) (Q86Z02 whole entry, looked up): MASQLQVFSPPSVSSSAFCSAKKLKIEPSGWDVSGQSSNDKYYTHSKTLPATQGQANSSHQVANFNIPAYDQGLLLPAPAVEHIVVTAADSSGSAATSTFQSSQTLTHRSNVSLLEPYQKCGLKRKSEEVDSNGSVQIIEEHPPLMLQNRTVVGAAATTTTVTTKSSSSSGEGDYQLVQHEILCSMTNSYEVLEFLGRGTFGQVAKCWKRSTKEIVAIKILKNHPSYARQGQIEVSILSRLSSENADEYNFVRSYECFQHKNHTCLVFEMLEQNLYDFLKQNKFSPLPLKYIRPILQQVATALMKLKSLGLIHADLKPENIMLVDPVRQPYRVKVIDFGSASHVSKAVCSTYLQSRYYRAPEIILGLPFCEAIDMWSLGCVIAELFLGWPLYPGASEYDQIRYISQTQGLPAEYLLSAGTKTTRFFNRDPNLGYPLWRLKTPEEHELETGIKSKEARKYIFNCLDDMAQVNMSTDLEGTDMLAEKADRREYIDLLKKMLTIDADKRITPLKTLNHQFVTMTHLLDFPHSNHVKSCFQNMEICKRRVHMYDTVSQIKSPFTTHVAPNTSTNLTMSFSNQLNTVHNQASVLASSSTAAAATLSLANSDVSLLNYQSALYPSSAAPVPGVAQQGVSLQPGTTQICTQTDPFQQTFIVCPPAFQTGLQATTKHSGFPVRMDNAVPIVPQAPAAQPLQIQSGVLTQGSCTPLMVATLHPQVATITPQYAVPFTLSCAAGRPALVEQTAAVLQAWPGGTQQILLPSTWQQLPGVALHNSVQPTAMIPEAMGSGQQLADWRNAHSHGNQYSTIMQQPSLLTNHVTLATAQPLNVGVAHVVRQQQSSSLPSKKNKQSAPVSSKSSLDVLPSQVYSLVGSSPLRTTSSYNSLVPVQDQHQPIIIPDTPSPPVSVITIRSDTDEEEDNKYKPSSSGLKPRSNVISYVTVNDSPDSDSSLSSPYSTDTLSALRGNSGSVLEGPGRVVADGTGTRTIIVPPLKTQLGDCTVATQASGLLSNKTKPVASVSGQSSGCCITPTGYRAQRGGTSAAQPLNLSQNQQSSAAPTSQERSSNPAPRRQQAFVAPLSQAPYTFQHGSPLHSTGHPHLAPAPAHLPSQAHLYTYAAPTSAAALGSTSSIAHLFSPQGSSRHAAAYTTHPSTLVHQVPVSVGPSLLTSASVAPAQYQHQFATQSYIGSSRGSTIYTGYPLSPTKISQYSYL
Chain of Tyrosine-protein kinase Fes/Fps (Homo sapiens) (P07332 whole entry): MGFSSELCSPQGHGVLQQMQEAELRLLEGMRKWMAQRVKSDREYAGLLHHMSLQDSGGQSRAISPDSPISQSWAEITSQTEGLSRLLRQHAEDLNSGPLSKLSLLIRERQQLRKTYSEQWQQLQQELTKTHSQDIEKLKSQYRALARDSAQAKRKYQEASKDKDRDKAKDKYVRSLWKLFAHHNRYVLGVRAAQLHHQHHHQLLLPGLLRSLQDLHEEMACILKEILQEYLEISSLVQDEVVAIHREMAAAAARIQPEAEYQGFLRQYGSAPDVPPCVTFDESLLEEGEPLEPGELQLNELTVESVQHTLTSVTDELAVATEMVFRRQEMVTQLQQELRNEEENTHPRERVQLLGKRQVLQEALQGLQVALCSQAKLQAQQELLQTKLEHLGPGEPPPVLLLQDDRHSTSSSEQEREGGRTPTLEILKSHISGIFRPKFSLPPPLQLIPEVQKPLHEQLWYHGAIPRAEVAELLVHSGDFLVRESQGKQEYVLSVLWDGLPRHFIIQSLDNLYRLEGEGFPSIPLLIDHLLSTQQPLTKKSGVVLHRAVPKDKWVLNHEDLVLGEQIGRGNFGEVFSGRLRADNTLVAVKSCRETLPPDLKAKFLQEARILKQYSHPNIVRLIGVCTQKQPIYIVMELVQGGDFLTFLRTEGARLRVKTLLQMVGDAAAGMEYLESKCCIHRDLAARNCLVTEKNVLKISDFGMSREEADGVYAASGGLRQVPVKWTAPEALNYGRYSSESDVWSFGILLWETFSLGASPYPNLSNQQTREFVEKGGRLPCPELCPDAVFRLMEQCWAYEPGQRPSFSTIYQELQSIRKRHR
Chain of Histamine H1 receptor (Homo sapiens) (P35367 whole entry): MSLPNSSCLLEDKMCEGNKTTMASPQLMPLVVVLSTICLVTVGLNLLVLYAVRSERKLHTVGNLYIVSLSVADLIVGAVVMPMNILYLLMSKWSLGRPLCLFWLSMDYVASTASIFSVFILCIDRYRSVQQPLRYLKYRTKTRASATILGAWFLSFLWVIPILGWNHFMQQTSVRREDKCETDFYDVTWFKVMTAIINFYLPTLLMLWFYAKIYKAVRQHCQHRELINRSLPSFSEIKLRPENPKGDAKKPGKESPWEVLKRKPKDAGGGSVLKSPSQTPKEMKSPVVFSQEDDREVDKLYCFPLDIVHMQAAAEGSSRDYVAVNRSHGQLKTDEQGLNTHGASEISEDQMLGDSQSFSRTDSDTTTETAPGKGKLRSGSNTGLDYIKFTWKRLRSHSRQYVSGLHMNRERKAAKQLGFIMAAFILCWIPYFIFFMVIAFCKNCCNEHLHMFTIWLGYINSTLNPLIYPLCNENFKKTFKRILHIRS
Chain of Serine/threonine-protein kinase 32A (Homo sapiens) (Q8WU08 whole entry): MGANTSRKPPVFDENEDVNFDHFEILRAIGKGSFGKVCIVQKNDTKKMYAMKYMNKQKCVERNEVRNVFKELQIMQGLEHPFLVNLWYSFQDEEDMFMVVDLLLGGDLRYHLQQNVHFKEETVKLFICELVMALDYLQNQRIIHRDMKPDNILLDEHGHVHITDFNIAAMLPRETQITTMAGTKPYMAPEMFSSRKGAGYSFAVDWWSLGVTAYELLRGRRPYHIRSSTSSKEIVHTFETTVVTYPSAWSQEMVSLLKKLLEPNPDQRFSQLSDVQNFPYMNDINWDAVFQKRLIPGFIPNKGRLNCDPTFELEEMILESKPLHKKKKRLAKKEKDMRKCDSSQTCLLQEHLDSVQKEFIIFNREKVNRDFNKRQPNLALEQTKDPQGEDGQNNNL

| Structure (SMILES) | residual activity [1] | residual activity [2] | residual activity [3] | residual activity [4] | residual activity [5] | residual activity [6] | residual activity [7] | residual activity [8] | residual activity [9] | residual activity [10] | inhibition [11] | inhibition [12] | inhibition [13] |
| --- | --- | --- | --- | --- | --- | --- | --- | --- | --- | --- | --- | --- | --- |
| CN(C)C(=O)Cn1cc(-c2nc(C3(c4ccc(-c5cnc(N)nc5)cc4)CC3)no2)cn1 [BI 0153] | 82% | 96% | 100% | 63% | 89% | 99% | 83% | 92% | 93% | 97% | 52.4% | 8.78% | 3.06% |
| CN(C)C(=O)Cn1cc(-c2nc([C@@](C)(c3ccc(-c4cnc(N)nc4)cc3)C3CC3)no2)cn1 [BI 665915] | 100% | 91% | 100% | 96% | 100% | 97% | 97% | 83% | 100% | 83% | 60.7% | 7.66% | 9.54% |
